Assay [1] addresses T1, K-RAS G12D (Homo sapiens, UniProt P01116, G12D).
T1 construct: His tag; purchased Stratech
The assay can be described thus: Compound depletion assay, K-RAS G12D. Format: binding. As to conditions: G12D protein 20 μM, compound 8 μM, 25° C. The procedure:
(§1) Compound Depletion Assay Method
(§2) Lyophilized human K-RAS (12 Cys) protein (His tag) and human K-RAS (12 Asp) protein (His tag) were purchased from Stratech and reconstituted at 30 μM in water. The protein concentration of K-RAS G12C and K-RAS G12D was adjusted to 20 μM in K-RAS Assay Buffer (20 mM HEPES pH 7.5, 150 mM NaCl, 1 mM MgCl2). A 49 μl aliquot of protein solution was transferred to 1.5 ml eppendorfs and incubated at room temperature for 10 minutes. A 1 μl aliquot of compound solution in DMSO was added to the protein solutions in the 1.5 ml eppendorfs to initiate the reaction, with a final assay compound concentration of 8 μM. Reactions were agitated at 25° C., 700 rpm. At each time point (0, 30, 180, 360, 1440 minutes), 10 μl of the reaction mixture was removed, added to 30 μl quench solution (0.3% formic acid, 75 nM propranolol in acetonitrile) to stop the reaction and stored at 4° C. Once all reactions were quenched, the samples were centrifuged at 16000 g for 10 minutes to pellet the protein and salts. A 10 μl aliquot of supernatant containing compound was diluted in 50:50 acetonitrile:H2O in a 96 well plate. The plates were heat sealed and the samples analysed by LC-MS/MS to determine the concentration of compound remaining in the samples. To determine the reaction progress, the compound signal was normalized to the internal standard signal (propranolol). The decrease in free compound concentration is shown as a percentage over time, with the […] at time zero fixed at one hundred percent. Compound is assumed to be completely depleted when no longer detectable with a double blank sample as reference.

The target in assay [2] is T2, K-RAS G12C (Homo sapiens, UniProt P01116, G12C).
T2 construct: His tag; purchased Stratech
T2 sequence (P01116 1-188 isoform P01116-2 G12C): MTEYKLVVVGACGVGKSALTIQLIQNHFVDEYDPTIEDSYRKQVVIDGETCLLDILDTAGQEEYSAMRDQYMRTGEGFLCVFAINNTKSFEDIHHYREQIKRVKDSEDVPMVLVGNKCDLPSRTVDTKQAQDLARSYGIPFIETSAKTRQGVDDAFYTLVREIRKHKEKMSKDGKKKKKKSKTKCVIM
In words: Compound depletion assay, K-RAS G12C. As to conditions: G12C protein 20 μM, compound 8 μM, 25° C. Format: binding. As for the experimental part:
as §1, §2

The record followed here is patent US12612387B2, “RAS inhibitors and methods of using the same” (Jazz Pharmaceuticals Ireland Limited, priority 2020, dated 2026).

T1 sequence (P01116 1-188 isoform P01116-2 G12D): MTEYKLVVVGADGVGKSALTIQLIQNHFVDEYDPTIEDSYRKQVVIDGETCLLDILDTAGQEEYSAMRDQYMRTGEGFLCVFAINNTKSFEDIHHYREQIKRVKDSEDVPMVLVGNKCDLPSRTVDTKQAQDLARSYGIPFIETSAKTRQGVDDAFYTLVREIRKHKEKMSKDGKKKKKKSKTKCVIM

On to `C=CC(=O)N1CCN(c2cc(C(=O)Nc3cc(O)cc4ccccc34)nc(OCC3CN(C)CCO3)n2)C[C@@H]1CC#N` (stereo in doubt) [Example 52, 6-[(3S)-3-(cyanomethyl)-4-prop-2-enoyl-piperazin-1-yl]-N-(3-hydroxy-1-naphthyl)-2-[[(2R)-4-methylmorpholin-2-yl]methoxy]pyrimidine-4-carboxamide], for which, in assay [1], the “30 min Category (compound remaining at timepoint)” value is given as “A (≥70% compound remaining at timepoint)”, the “3 hr Category (compound remaining at timepoint)” value was “A (≥70% compound remaining at timepoint)” and the “6 hr Category (compound remaining at timepoint)” value was “A (≥70% compound remaining at timepoint)”. Also, in assay [2], the “30 min Category (compound remaining at timepoint)” value is “C (≤30% compound remaining at timepoint)”, the “3 hr Category (compound remaining at timepoint)” value was “C (≤30% compound remaining at timepoint)” and the “6 hr Category (compound remaining at timepoint)” value is “C (≤30% compound remaining at timepoint)”.

As to `C=CC(=O)N1CCN(c2cc(C(=O)Nc3cccc4ccccc34)nc(OC[C@@H]3CCCN3C)n2)CC1` [Example 01, 2-[[(2S)-1-methylpyrrolidin-2-yl]methoxy]-N-(1-naphthyl)-6-(4-prop-2-enoylpiperazin-1-yl)pyrimidine-4-carboxamide], in assay [1], the “3 hr Category (compound remaining at timepoint)” value is given as “A (≥70% compound remaining at timepoint)” and the “24 hr Category (compound remaining at timepoint)” value is “A (≥70% compound remaining at timepoint)”. In assay [2], the “3 hr Category (compound remaining at timepoint)” value is on record as “A (≥70% compound remaining at timepoint)” and the “24 hr Category (compound remaining at timepoint)” value is “B (30%-70% compound remaining at timepoint)”.

In the case of `C=CC(=O)N1CCN(c2cc(C(=O)Nc3cccc4ccccc34)nc(OC[C@@H]3CCCN3C)n2)C[C@@H]1CC#N` [Example 02, 6-[(3S)-3-(cyanomethyl)-4-prop-2-enoyl-piperazin-1-yl]-2-[[(2S)-1-methylpyrrolidin-2-yl]methoxy]-N-(1-naphthyl)pyrimidine-4-carboxamide], in assay [1], the “3 hr Category (compound remaining at timepoint)” value is recorded as “A (≥70% compound remaining at timepoint)” and the “24 hr Category (compound remaining at timepoint)” value is “A (≥70% compound remaining at timepoint)”. In addition, in assay [2], the “3 hr Category (compound remaining at timepoint)” value is “B (30%-70% compound remaining at timepoint)” and the “24 hr Category (compound remaining at timepoint)” value is “B (30%-70% compound remaining at timepoint)”.

Consider `C=CC(=O)N1CCN(c2cc(C(=O)Nc3cc(O)cc4ccccc34)nc(OC[C@@H]3CCCN3C)n2)CC1` [Example 03, N-(3-hydroxy-1-naphthyl)-2-[[(2S)-1-methylpyrrolidin-2-yl]methoxy]-6-(4-prop-2-enoylpiperazin-1-yl)pyrimidine-4-carboxamide], for which, in assay [1], the “3 hr Category (compound remaining at timepoint)” value is on record as “A (≥70% compound remaining at timepoint)” and the “24 hr Category (compound remaining at timepoint)” value was “A (≥70% compound remaining at timepoint)”. In assay [2], the “30 min Category (compound remaining at timepoint)” value is recorded as “B (30%-70% compound remaining at timepoint)”, the “3 hr Category (compound remaining at timepoint)” value is “C (≤30% compound remaining at timepoint)”, the “6 hr Category (compound remaining at timepoint)” value is reported as “C (≤30% compound remaining at timepoint)” and the “24 hr Category (compound remaining at timepoint)” value was “C (≤30% compound remaining at timepoint)”.

With `C=CC(=O)N1CCN(c2cc(C(=O)Nc3cccc(O)c3)nc(OC[C@@H]3CCCN3C)n2)CC1` [Example 04, N-(3-hydroxyphenyl)-2-[[(2S)-1-methylpyrrolidin-2-yl]methoxy]-6-(4-prop-2-enoylpiperazin-1-yl)pyrimidine-4-carboxamide], the “3 hr Category (compound remaining at timepoint)” value in assay [1] and in assay [2] was “A (≥70% compound remaining at timepoint)” in each case. Also, the “24 hr Category (compound remaining at timepoint)” value in assay [1] and in assay [2] was “A (≥70% compound remaining at timepoint)” in each case.

As to `C=CC(=O)N1CCN(c2cc(C(=O)Nc3ccc(O)cc3)nc(OC[C@@H]3CCCN3C)n2)CC1` [Example 05], the “3 hr Category (compound remaining at timepoint)” value in assay [1] and in assay [2] was “A (≥70% compound remaining at timepoint)” each time. The “24 hr Category (compound remaining at timepoint)” value in assay [1] and in assay [2] was “A (≥70% compound remaining at timepoint)” each time.

Turning to `C=CC(=O)N1CCN(c2cc(C(=O)Nc3ccccc3O)nc(OC[C@@H]3CCCN3C)n2)CC1` [Example 06, N-(2-hydroxyphenyl)-2-[[(2S)-1-methylpyrrolidin-2-yl]methoxy]-6-(4-prop-2-enoylpiperazin-1-yl)pyrimidine-4-carboxamide], in assay [1], the “3 hr Category (compound remaining at timepoint)” value was “A (≥70% compound remaining at timepoint)” and the “24 hr Category (compound remaining at timepoint)” value was “A (≥70% compound remaining at timepoint)”. In assay [2], the “3 hr Category (compound remaining at timepoint)” value is listed as “A (≥70% compound remaining at timepoint)” and the “24 hr Category (compound remaining at timepoint)” value is “A (≥70% compound remaining at timepoint)”.

In the case of `C=CC(=O)N1CCN(c2cc(C(=O)Nc3cccc4ccccc34)nc(OCCN3CCOCC3)n2)CC1` [Example 07, 2-(2-morpholinoethoxy)-N-(1-naphthyl)-6-(4-prop-2-enoylpiperazin-1-yl)pyrimidine-4-carboxamide], in assay [1], the “3 hr Category (compound remaining at timepoint)” value is listed as “A (≥70% compound remaining at timepoint)” and the “24 hr Category (compound remaining at timepoint)” value is reported as “A (≥70% compound remaining at timepoint)”. For the same compound, in assay [2], the “3 hr Category (compound remaining at timepoint)” value is recorded as “A (≥70% compound remaining at timepoint)” and the “24 hr Category (compound remaining at timepoint)” value is “A (≥70% compound remaining at timepoint)”.

As to `C=CC(=O)N1CCN(c2cc(C(=O)Nc3cc(O)cc4ccccc34)nc(OC[C@@H]3CCCN3C)n2)C[C@@H]1CC#N` [Example 08, 6-[(3S)-3-(cyanomethyl)-4-prop-2-enoyl-piperazin-1-yl]-N-(3-hydroxy-1-naphthyl)-2-[[(2S)-1-methylpyrrolidin-2-yl]methoxy]pyrimidine-4-carboxamide], in assay [1], the “30 min Category (compound remaining at timepoint)” value was “A (≥70% compound remaining at timepoint)”, the “3 hr Category (compound remaining at timepoint)” value was “A (≥70% compound remaining at timepoint)”, the “6 hr Category (compound remaining at timepoint)” value was “A (≥70% compound remaining at timepoint)” and the “24 hr Category (compound remaining at timepoint)” value is “A (≥70% compound remaining at timepoint)”. Besides, in assay [2], the “30 min Category (compound remaining at timepoint)” value was “B (30%-70% compound remaining at timepoint)”, the “3 hr Category (compound remaining at timepoint)” value is on record as “C (≤30% compound remaining at timepoint)”, the “6 hr Category (compound remaining at timepoint)” value is recorded as “C (≤30% compound remaining at timepoint)” and the “24 hr Category (compound remaining at timepoint)” value is on record as “C (≤30% compound remaining at timepoint)”.

Turning to `C=CC(=O)N1CCN(c2cc(C(=O)Nc3cccc4ccccc34)nc(-c3cccnc3)n2)CC1` [Example 09, N-(1-naphthyl)-6-(4-prop-2-enoylpiperazin-1-yl)-2-(3-pyridyl)pyrimidine-4-carboxamide], in assay [1], the “30 min Category (compound remaining at timepoint)” value was “A (≥70% compound remaining at timepoint)”, the “3 hr Category (compound remaining at timepoint)” value is given as “A (≥70% compound remaining at timepoint)”, the “6 hr Category (compound remaining at timepoint)” value is given as “A (≥70% compound remaining at timepoint)” and the “24 hr Category (compound remaining at timepoint)” value is recorded as “A (≥70% compound remaining at timepoint)”. In assay [2], the “3 hr Category (compound remaining at timepoint)” value is reported as “A (≥70% compound remaining at timepoint)”, the “6 hr Category (compound remaining at timepoint)” value is listed as “A (≥70% compound remaining at timepoint)” and the “24 hr Category (compound remaining at timepoint)” value is “B (30%-70% compound remaining at timepoint)”.

For the compound `C=CC(=O)N1CCN(c2cc(C(=O)Nc3cccc4ccccc34)nc(-c3cnn(C)c3)n2)CC1` [Example 10, 2-(1-methylpyrazol-4-yl)-N-(1-naphthyl)-6-(4-prop-2-enoylpiperazin-1-yl)pyrimidine-4-carboxamide], in assay [1], the “3 hr Category (compound remaining at timepoint)” value is reported as “A (≥70% compound remaining at timepoint)” and the “24 hr Category (compound remaining at timepoint)” value is “A (≥70% compound remaining at timepoint)”. For the same compound, in assay [2], the “3 hr Category (compound remaining at timepoint)” value was “A (≥70% compound remaining at timepoint)” and the “24 hr Category (compound remaining at timepoint)” value is reported as “A (≥70% compound remaining at timepoint)”.
